Measured values from publication PMC12638379, “An innovative approach to development of new pyrazolylquinolin-2-one hybrids as dual EGFR and BRAF^V600E inhibitors” (Molecular Diversity, 2025).
Where two headings read alike, the source gives them in different places.

System: NCI 60 cancer cell lines
Assay: NCI anticancer screening over a panel of 60 cancer cells, single concentration 10 µM
Format: cell-based, human
Conditions: Homo sapiens, read-out: Growth inhibition (GI %)
Description: Ten final compounds 4a–j and five intermediates 2a–e have been selected by the National Cancer Institute (NCI) for anticancer screening over a panel of 60 cancer cells that cover a variety of histological tissues, including the central nervous system, leukemia, lung, colon, kidney, ovary, breast, and prostate, using the protocol established by the National Cancer Institute (NCI). In a primary screening, each compound was screened at a concentration of 10 µM.
Compounds 2a-e and 4a-j were selected by the National Cancer Institute (NCI) according to the protocol of the Compound Evaluation Branch of the National Cancer Institute, Bethesda, USA, for in vitro anticancer screening which refers in turn to apoptotic activity. The methodology of the NCI anticancer screening has been described in detail elsewhere (http://www.dtp.nci.nih.gov).

[1] = 786-0, Renal cancer 786-0, 10 μM
[2] = A549, Non-small cell lung cancer A549/ATCC, 10 μM
[3] = BT-549, Breast cancer BT-549, 10 μM
[4] = CAKI-1, Renal cancer CAKI-1, 10 μM
[5] = CCRF-CEM, Leukemia CCRF-CEM, 10 μM
[6] = COLO 205, Colon cancer COLO 205, 10 μM
[7] = DU-145, Prostate cancer DU-145, 10 μM
[8] = EKVX, Non-small cell lung cancer EKVX, 10 μM
[9] = HCC 2998, Colon cancer HCC-2998, 10 μM
[10] = HCT-15, Colon cancer HCT-15, 10 μM
[11] = HCT-116, Colon cancer HCT-116, 10 μM
[12] = HL-60, Leukemia HL-60(TB), 10 μM
[13] = HOP-62, Non-small cell lung cancer HOP-62, 10 μM
[14] = HOP-92, Non-small cell lung cancer HOP-92, 10 μM
[15] = HT-29, Colon cancer HT29, 10 μM
[16] = Hs-578T, Breast cancer HS 578T, 10 μM
[17] = IGROV-1, Ovarian cancer IGROV1, 10 μM
[18] = LOX IMVI, Melanoma LOX IMVI, 10 μM
[19] = MDA-MB-231, Breast Cancer MDA-MB 231/ATCC, 10 μM
[20] = MDA-MB-435, Melanoma MDA-MB-435, 10 μM
[21] = MDA-MB-468, Breast cancer MDA-MB-468, 10 μM
[22] = Malme-3M, Melanoma MALME-3M, 10 μM
[23] = NCI-H23, Non-small cell lung cancer NCI-H23, 10 μM
[24] = NCI-H226, Non-small cell lung cancer NCI-H226, 10 μM
[25] = NCI-H322M, Non-small cell lung cancer NCI-H322M, 10 μM
[26] = NCI-H460, Non-small cell lung cancer NCI-H460, 10 μM
[27] = NCI-H522, Non-small cell lung cancer NCI-H522, 10 μM
[28] = NCI/ADR-RES, Ovarian cancer NCI/ADR-RES, 10 μM
[29] = OVCAR-3, Ovarian cancer OVCAR-3, 10 μM
[30] = OVCAR-4, Ovarian cancer OVCAR-4, 10 μM
[31] = OVCAR-5, Ovarian cancer OVCAR-5, 10 μM
[32] = OVCAR-8, Ovarian cancer OVCAR-8, 10 μM
[33] = RPMI-8226, Leukemia RPMI-8226, 10 μM
[34] = RXF 393, Renal cancer RXF 393, 10 μM
[35] = SF-268, CNS Cancer SF-268, 10 μM
[36] = SF-295, CNS Cancer SF-295, 10 μM
[37] = SF-539, CNS Cancer SF-539, 10 μM
[38] = SK-MEL-2, Melanoma SK-MEL-2, 10 μM
[39] = SK-MEL-5, Melanoma SK-MEL-5, 10 μM
[40] = SK-MEL-28, Melanoma SK-MEL-28, 10 μM
[41] = SK-OV-3, Ovarian cancer SK-OV-3, 10 μM
[42] = SN12C, Renal cancer SN12C, 10 μM
[43] = SNB-19, CNS Cancer SNB-19, 10 μM
[44] = SNB-75, CNS Cancer SNB-75, 10 μM
[45] = SW-620, Colon cancer SW-620, 10 μM
[46] = T47D, Breast cancer T-47D, 10 μM
[47] = TK-10, Renal cancer TK-10, 10 μM
[48] = UACC-62, Melanoma UACC-62, 10 μM
[49] = UACC-257, Melanoma UACC-257, 10 μM
[50] = UO-31, Renal cancer UO-31, 10 μM

## CC(=O)c1cnn(-c2cc(=O)[nH]c3ccccc23)c1C [Compound 2a, 4-(4-Acetyl-5-methyl-1H-pyrazol-1-yl)quinolin-2(1H)-one]
[1]
  inhibition at 10 µM: < 5%
A498, Renal cancer A498, 10 μM
  inhibition at 10 µM: < 5%
[2]
  inhibition at 10 µM: 5.98%
ACHN, Renal cancer ACHN, 10 μM
  inhibition at 10 µM: 7.82%
[3]
  inhibition at 10 µM: 6.06%
[4]
  inhibition at 10 µM: 21.5%
[5]
  inhibition at 10 µM: 11.3%
[6]
  inhibition at 10 µM: < 5%
[7]
  inhibition at 10 µM: < 5%
[8]
  inhibition at 10 µM: 54.4%
[9]
  inhibition at 10 µM: < 5%
[10]
  inhibition at 10 µM: < 5%
[11]
  inhibition at 10 µM: < 5%
[12]
  inhibition at 10 µM: 6.26%
[13]
  inhibition at 10 µM: 22.9%
[14]
  inhibition at 10 µM: 25.1%
[15]
  inhibition at 10 µM: < 5%
[16]
  inhibition at 10 µM: 8.26%
[17]
  inhibition at 10 µM: 37.9%
K562, Leukemia K-562, 10 μM
  inhibition at 10 µM: 9.72%
KM12, Colon cancer KM12, 10 μM
  inhibition at 10 µM: < 5%
[18]
  inhibition at 10 µM: 15.6%
Leukemia SR, 10 μM
  inhibition at 10 µM: 5.8%
MCF7, Breast cancer MCF7, 10 μM
  inhibition at 10 µM: 17.3%
[19]
  inhibition at 10 µM: 26.9%
[20]
  inhibition at 10 µM: < 5%
[21]
  inhibition at 10 µM: < 5%
MOLT-4, Leukemia MOLT-4, 10 μM
  inhibition at 10 µM: 7.63%
[22]
  inhibition at 10 µM: 11.3%
Melanoma M14, 10 μM
  inhibition at 10 µM: < 5%
[23]
  inhibition at 10 µM: 10.3%
[24]
  inhibition at 10 µM: 32.4%
[25]
  inhibition at 10 µM: 16.1%
[26]
  inhibition at 10 µM: < 5%
[27]
  inhibition at 10 µM: 10.3%
[28]
  inhibition at 10 µM: 8.35%
[29]
  inhibition at 10 µM: < 5%
[30]
  inhibition at 10 µM: < 5%
[31]
  inhibition at 10 µM: < 5%
[32]
  inhibition at 10 µM: < 5%
Prostate cancer PC-3, 10 μM
  inhibition at 10 µM: 15.2%
[33]
  inhibition at 10 µM: 26.6%
[34]
  inhibition at 10 µM: < 5%
[35]
  inhibition at 10 µM: < 5%
[36]
  inhibition at 10 µM: 6.24%
[37]
  inhibition at 10 µM: 13%
[38]
  inhibition at 10 µM: < 5%
[39]
  inhibition at 10 µM: 11.9%
[40]
  inhibition at 10 µM: < 5%
[41]
  inhibition at 10 µM: 20%
[42]
  inhibition at 10 µM: 8.07%
[43]
  inhibition at 10 µM: 11.4%
[44]
  inhibition at 10 µM: < 5%
[45]
  inhibition at 10 µM: < 5%
[46]
  inhibition at 10 µM: 16.9%
[47]
  inhibition at 10 µM: < 5%
U-251, CNS Cancer U251, 10 μM
  inhibition at 10 µM: 8.86%
[48]
  inhibition at 10 µM: 19.5%
[49]
  inhibition at 10 µM: < 5%
[50]
  inhibition at 10 µM: 38.3%

## CC(=O)c1cnn(-c2cc(=O)[nH]c3ccc(C)cc23)c1C [Compound 2b, 4-(4-Acetyl-5-methyl-1H-pyrazol-1-yl)-6-methylquinolin-2(1H)-one]
[1]
  inhibition at 10 µM: < 5%
A498, Renal cancer A498, 10 μM
  inhibition at 10 µM: < 5%
[2]
  inhibition at 10 µM: < 5%
ACHN, Renal cancer ACHN, 10 μM
  inhibition at 10 µM: < 5%
[3]
  inhibition at 10 µM: < 5%
[4]
  inhibition at 10 µM: 8.89%
[5]
  inhibition at 10 µM: < 5%
[6]
  inhibition at 10 µM: < 5%
[7]
  inhibition at 10 µM: < 5%
[8]
  inhibition at 10 µM: < 5%
[9]
  inhibition at 10 µM: < 5%
[10]
  inhibition at 10 µM: < 5%
[11]
  inhibition at 10 µM: < 5%
[12]
  inhibition at 10 µM: 19%
[13]
  inhibition at 10 µM: 6.93%
[14]
  inhibition at 10 µM: < 5%
[15]
  inhibition at 10 µM: < 5%
[16]
  inhibition at 10 µM: < 5%
[17]
  inhibition at 10 µM: < 5%
K562, Leukemia K-562, 10 μM
  inhibition at 10 µM: < 5%
KM12, Colon cancer KM12, 10 μM
  inhibition at 10 µM: < 5%
[18]
  inhibition at 10 µM: 5.38%
Leukemia SR, 10 μM
  inhibition at 10 µM: < 5%
[19]
  inhibition at 10 µM: < 5%
[20]
  inhibition at 10 µM: < 5%
[21]
  inhibition at 10 µM: < 5%
MOLT-4, Leukemia MOLT-4, 10 μM
  inhibition at 10 µM: < 5%
[22]
  inhibition at 10 µM: < 5%
Melanoma M14, 10 μM
  inhibition at 10 µM: < 5%
[23]
  inhibition at 10 µM: < 5%
[24]
  inhibition at 10 µM: < 5%
[25]
  inhibition at 10 µM: < 5%
[26]
  inhibition at 10 µM: < 5%
[27]
  inhibition at 10 µM: 6.79%
[28]
  inhibition at 10 µM: < 5%
[29]
  inhibition at 10 µM: < 5%
[30]
  inhibition at 10 µM: < 5%
[31]
  inhibition at 10 µM: < 5%
[32]
  inhibition at 10 µM: < 5%
Prostate cancer PC-3, 10 μM
  inhibition at 10 µM: 4.29%
[33]
  inhibition at 10 µM: < 5%
[34]
  inhibition at 10 µM: < 5%
[35]
  inhibition at 10 µM: < 5%
[36]
  inhibition at 10 µM: < 5%
[37]
  inhibition at 10 µM: < 5%
[38]
  inhibition at 10 µM: < 5%
[39]
  inhibition at 10 µM: < 5%
[40]
  inhibition at 10 µM: < 5%
[41]
  inhibition at 10 µM: < 5%
[42]
  inhibition at 10 µM: < 5%
[43]
  inhibition at 10 µM: < 5%
[44]
  inhibition at 10 µM: < 5%
[45]
  inhibition at 10 µM: < 5%
[46]
  inhibition at 10 µM: 6.75%
[47]
  inhibition at 10 µM: < 5%
U-251, CNS Cancer U251, 10 μM
  inhibition at 10 µM: 5.31%
[48]
  inhibition at 10 µM: < 5%
[49]
  inhibition at 10 µM: < 5%
[50]
  inhibition at 10 µM: 19%
